Assays:
wildtype zebrafish = test: Initial dose-finding study in adult fish, daily oral gavage, survival; assay type: in vivo; conditions: daily gavage of quizartinib at 10 mg/kg, enasidenib at 100 mg/kg, 14 days
Method: (§1) Drugs at three concentrations (0.01 μM, 0.1 μM and 1 μM) were added to the embryos in E3 medium with (1-phenyl-2-thiourea) PTU at 6 hpf, and the medium was changed every 24 hours. At 4 dpf, embryos were collected and fixed in 4% PFA for SSB staining. […] Adult zebrafish were anesthetized using 0.015% Tricaine. […] Treated zebrafish were then placed into an individual recovery tank with fresh sterile fish water immediately after the gavage procedure. The drug regimen was repeated daily for 14 days. The gavage apparatus was consisted of a 10 μl microliter syringe (Gaoge, Shanghai, China) and a polyethylene tubing (BTPE-50, INTECH, USA), and was adapted from Collymore et al., 2013 and Dang, Michelle, et al., 2016.

[1] = system: Tg(Runx1:FLT3^ITDIDH2^R172K) and Tg(Runx1:FLT3^ITDIDH2^R140Q) embryos; test: Drug treatment of double transgenic embryos, SBB staining as surrogate for embryonic myelopoiesis; assay type: in vivo, zebrafish; conditions: drugs at 0.01 μM, 0.1 μM and 1 μM from 6 hpf, stained at 4 dpf
Method: as §1, with “days.” for “days. The gavage apparatus was consisted of a 10 μl microliter syringe (Gaoge, Shanghai, China) and a polyethylene tubing (BTPE-50, INTECH, USA), and was adapted from Collymore et al., 2013 and Dang, Michelle, et al., 2016.”

[2] = system: FLT3^ITD and IDH2 double mutant zebrafish; test: 14-day oral gavage treatment of adult double transgenic leukemic fish, kidney marrow analysis; assay type: in vivo; conditions: daily oral gavage 14 days, quizartinib 10 mg/kg, enasidenib 100 mg/kg
Method: (§2) Zebrafish WKM were harvested from two to twelve months old transgenic or wildtype TU fish. The collected KM was dissociated in 0.9×PBS with 5% fetal bovine serum (FBS) by pipetting and filtered through a 40 μm nylon cell strainer (Corning, NY, USA). The cells were then centrifuged at 500 g for 5 minutes, resuspended, filtered, and washed with 0.9×PBS with 5% (FBS) at least twice. Flow cytometry of the KM was performed using a MoFlo XDP flow cytometer (Beckman coulter). The data was analyzed using FlowJo™ v10.6.1 software. Cytospin preparations were made with 2×10^5 to 3×10^5 cells cytocentrifuged at 400 rpm for 5 minutes onto microscope glass slides (Thermo scientific). The glass slides were dried at room temperature for more than 12 hours, stained with Wright-Giemsa stain, and imaged with Nikon DS-Ri2 digital camera fitted to a Nikon Eclipse Ni-U microscope.
as §1, with “days.” for “days. The gavage apparatus was consisted of a 10 μl microliter syringe (Gaoge, Shanghai, China) and a polyethylene tubing (BTPE-50, INTECH, USA), and was adapted from Collymore et al., 2013 and Dang, Michelle, et al., 2016.”

[3] = system: Tg(Runx1:FLT3^ITDIDH2^R140Q) zebrafish; test: 14-day oral gavage treatment of adult Tg(Runx1:FLT3^ITDIDH2^R140Q) fish; assay type: in vivo; conditions: adult Tg(Runx1:FLT3^ITD IDH2^R140Q) double mutant; treatment with Quizartinib and/or Enasidenib, 14 days
Method: as §2
as §1, with “days.” for “days. The gavage apparatus was consisted of a 10 μl microliter syringe (Gaoge, Shanghai, China) and a polyethylene tubing (BTPE-50, INTECH, USA), and was adapted from Collymore et al., 2013 and Dang, Michelle, et al., 2016.”

[4] = system: Tg(Runx1:FLT3^ITDIDH2^R172K) zebrafish; test: 14-day oral gavage treatment of adult Tg(Runx1:FLT3^ITDIDH2^R172K) fish; assay type: in vivo; conditions: adult Tg(Runx1:FLT3^ITDIDH2^R172K) double mutants; treatment with Quizartinib and/or Enasidenib, 14 days
Method: as §2
as §1, with “days.” for “days. The gavage apparatus was consisted of a 10 μl microliter syringe (Gaoge, Shanghai, China) and a polyethylene tubing (BTPE-50, INTECH, USA), and was adapted from Collymore et al., 2013 and Dang, Michelle, et al., 2016.”

| Structure (SMILES) | fish survival (wildtype zebrafish) | embryonic myelopoiesis (cytochemical staining with SBB) [1] | blast counts in KM ([2]; alone or combined) | erythroid cells in KM / erythropoiesis ([2]; alone or combined) | neutrophils in KM ([2]; alone or combined) | cellularity in KM ([2]; monotherapy) | spleen size [3] | spleen size [4] |
| --- | --- | --- | --- | --- | --- | --- | --- | --- |
| CC(C)(C)c1cc(NC(=O)Nc2ccc(-c3cn4c(n3)sc3cc(OCCN5CCOCC5)ccc34)cc2)no1 [quizartinib, Quizartinib] | compatible with normal fish survival | – | – | – | – | – | – | – |
| CC(C)(O)CNc1nc(Nc2ccnc(C(F)(F)F)c2)nc(-c2cccc(C(F)(F)F)n2)n1 [enasidenib, Enasidenib] | compatible with normal fish survival | ameliorated the increase in myelopoiesis | reduced blast counts in KM | significant increase in neutrophils and erythroid | significant increase in neutrophils | but not enasidenib monotherapy significantly reduced cellularity | no changes were observed in spleen size | decreased spleen sizes |

From patent publication US20250324955A1, “ZEBRAFISH MODEL OF HUMAN ACUTE MYELOID LEUKEMIA AND METHOD OF USE THEREOF” (Versitech Limited, priority 2022, published 2025)
